The values that follow come from patent US10611728B2, “Isoindoline compositions and methods for treating neurodegenerative disease” (priority 2014, dated 2020).

Each structure is given as a SMILES string.

A short description of the first series: Microsomal stability in mouse liver microsomes (MLM). Type of series: in vitro ADME. As to conditions: half-life in mouse liver microsomes. As for the experimental part: A first pharmacokinetic study was performed in microsomes of mice mouse liver microsomes, MLM) by a commercial contract research organization. The studies were performed according to Obach, R. S et al. (1997) J. Pharmacol. Exp. Ther., 283: 46-58, which is incorporated herein by reference.
(In general: Microsomes from liver hold many membrane-bound enzymes, among them those of drug oxidation.)
Regarding `COc1cc2c(cc1OC)CN([C@H](C)CCc1ccc(Cl)c(Cl)c1)C2` [compound 11], the “Mouse liver microsomes, MLM t½” value is recorded as 61 min.

With `COc1cc(CC[C@@H](C)N2Cc3cc4c(cc3C2)OCO4)ccc1O` [compound 6], the “Mouse liver microsomes, MLM t½” value was found to be 20 min.

Still in this series, the particulars now being: mouse, microsomes.
`CC(C)Oc1cc(CC[C@@H](C)N2Cc3ccc(S(C)(=O)=O)cc3C2)ccc1O` [compound 69]: the “Mouse liver microsomes, MLM t½” value was 75 min.

Consider `COC[C@H](CCc1ccc(Cl)c(Cl)c1)N1Cc2ccc(F)cc2C1` [compound 46], for which the “Mouse liver microsomes, MLM t½” value is reported as 5 min.

Regarding `CC(C)Oc1cc(CC[C@@H](C)N2Cc3ccc(F)cc3C2)ccc1O` [compound 37], the “Mouse liver microsomes, MLM t½” value is on record as 5 min.

In the case of `COc1cc(CCC(C)(C)N2Cc3ccc(F)cc3C2)ccc1OC(=O)N(C)C` [compound 50], the “Mouse liver microsomes, MLM t½” value came to 33 min.

Turning to `CC(C)COc1cc(CCC(C)(C)N2Cc3cccc(C(=O)N(C)C)c3C2)ccc1O` [compound 89], the “Mouse liver microsomes, MLM t½” value was 17 min.

As to `COc1cc(CC[C@@H](C)N2Cc3cc4c(cc3C2)OCO4)ccc1OCCO` [compound 52], the “Mouse liver microsomes, MLM t½” value is 97 min.

On to `CN(C)C(=O)c1cccc2c1CN(C(C)(C)CCc1ccc(O)c(OC(F)(F)F)c1)C2` [compound 57], for which the “Mouse liver microsomes, MLM t½” value came to 26 min.

Consider `C[C@H](CCc1ccc(Cl)c(Cl)c1)N1Cc2cc3c(cc2C1)OCO3` [compound 10], for which the “Mouse liver microsomes, MLM t½” value is 8 min.

Regarding `C[C@H](CCc1ccc(O)c(OC(F)(F)F)c1)N1Cc2ccc(F)cc2C1` [compound 31], the “Mouse liver microsomes, MLM t½” value is 6 min.

Turning to `COc1cc2c(cc1OC)CN([C@@H](C)CCc1ccc(Cl)c(Cl)c1)C2` [compound 20], the “Mouse liver microsomes, MLM t½” value came to 43 min.

For `C[C@H](CCc1ccc(F)cc1)N1Cc2cccc(F)c2C1` [compound 21], the “Mouse liver microsomes, MLM t½” value was 7 min.

Consider `CC(C)(C)Oc1cc(CCC(C)(C)N2Cc3ccc(S(C)(=O)=O)cc3C2)ccc1O` [compound 62], for which the “Mouse liver microsomes, MLM t½” value is reported as 45 min.

As to `CC(C)(CCc1ccc(F)cc1)N1Cc2cc3c(cc2C1)OCO3` [compound 36], the “Mouse liver microsomes, MLM t½” value turned out to be 47 min.

Take `CC(C)Oc1cc(CCC(C)(C)N2Cc3cccc(F)c3C2)ccc1O` [compound 28]: the “Mouse liver microsomes, MLM t½” value amounted to 4 min.

Regarding `COc1cc(CCC(C)(C)N2Cc3cc4c(cc3C2)OCO4)ccc1OCCO` [compound 47], the “Mouse liver microsomes, MLM t½” value was 91 min.

On to `COc1ccc2c(c1)CN([C@H](C)CCc1ccc(Cl)c(Cl)c1)C2.Cl` [compound 15], for which the “Mouse liver microsomes, MLM t½” value is 15 min.

For `COc1cc(CCC(C)(C)N2Cc3cccc(F)c3C2)ccc1O` [compound 53], the “Mouse liver microsomes, MLM t½” value is reported as 21 min.

As for `COCCN(C)C(=O)c1cccc2c1CN(C(C)(C)CCc1ccc(O)c(OC)c1)C2` [compound 86], the “Mouse liver microsomes, MLM t½” value is given as 19 min.

Regarding `C[C@H](CCc1ccc(OC(=O)N(C)C)c(OC(F)(F)F)c1)N1Cc2ccc(F)cc2C1` [compound 43], the “Mouse liver microsomes, MLM t½” value turned out to be 5 min.

On to `CN1CCN(C(=O)c2cccc3c2CN(C(C)(C)CCc2ccc(O)c(OC(F)(F)F)c2)C3)CC1` [compound 93], for which the “Mouse liver microsomes, MLM t½” value came to 5 min.

Take `C[C@H](CCc1ccc(O)c(OC(C)(C)C)c1)N1Cc2c(F)ccc(F)c2C1` [60A]: the “Mouse liver microsomes, MLM t½” value was determined as 5 min.

For `C[C@H](CCc1ccc(O)c(OC(C)(C)C)c1)N1Cc2cccc(F)c2C1` [60B], the “Mouse liver microsomes, MLM t½” value was determined as 8 min.

Turning to `C[C@H](CCc1ccc(O)c(OC(C)(C)C)c1)N1Cc2ccc(S(C)(=O)=O)cc2C1` [compound 63], the “Mouse liver microsomes, MLM t½” value is recorded as 31 min.

In the case of `COc1cc(CCC(C)(C)N2Cc3cccc(C(=O)N4CCOCC4)c3C2)ccc1O` [compound 80], the “Mouse liver microsomes, MLM t½” value amounted to 45 min.

For `CC(C)(CCc1ccc(O)c(OC(F)(F)F)c1)N1Cc2cccc(C(=O)N3CCOCC3)c2C1` [compound 94], the “Mouse liver microsomes, MLM t½” value is recorded as 14 min.

In the case of `CC(C)COc1cc(CCC(C)(C)N2Cc3cccc(C(=O)N4CCOCC4)c3C2)ccc1O` [compound 90], the “Mouse liver microsomes, MLM t½” value is 9 min.

For the compound `CC(C)Oc1ccc(CCC(C)(C)N2Cc3ccc(F)cc3C2)cc1OC(C)C` [compound 42], the “Mouse liver microsomes, MLM t½” value is 14 min.

Take `CC(C)COc1cc(CCC(C)(C)N2Cc3ccc(S(C)(=O)=O)cc3C2)ccc1O` [compound 87]: the “Mouse liver microsomes, MLM t½” value is recorded as 86 min.

Consider `CC(C)(CCc1ccc(F)cc1)N1Cc2cccc(F)c2C1` [compound 33], for which the “Mouse liver microsomes, MLM t½” value stood at 9 min.

`C[C@H](CCc1ccc(Cl)c(Cl)c1)N1Cc2ccc(F)cc2C1.Cl` [compound 12]: the “Mouse liver microsomes, MLM t½” value is 13 min.

In the case of `C[C@H](CCc1ccc(F)cc1)N1Cc2cc3c(cc2C1)OCO3` [compound 23], the “Mouse liver microsomes, MLM t½” value is listed as 5 min.

With `C[C@H](CCc1ccc(Cl)c(Cl)c1)N1Cc2cccc(Cl)c2C1.Cl` [compound 16], the “Mouse liver microsomes, MLM t½” value is recorded as 12 min.

Consider `CC(C)Oc1cc(CC[C@@H](C)N2Cc3cccc(F)c3C2)ccc1O` [compound 26], for which the “Mouse liver microsomes, MLM t½” value worked out at 4 min.

Turning to `COc1cc(CCC(C)(C)N2Cc3cccc(F)c3C2)ccc1OCCO` [compound 44], the “Mouse liver microsomes, MLM t½” value is 29 min.

For the compound `C[C@H](CCc1ccc(O)c(OC(F)(F)F)c1)N1Cc2cc3c(cc2C1)OCO3` [compound 24], the “Mouse liver microsomes, MLM t½” value was 5 min.

Regarding `C[C@H](CCc1ccc(Cl)c(Cl)c1)N1Cc2cccc(F)c2C1` [compound 9], the “Mouse liver microsomes, MLM t½” value worked out at 12 min.

Regarding `COc1cc(CCC(C)(C)N2Cc3ccc(F)cc3C2)ccc1OCCO` [compound 45], the “Mouse liver microsomes, MLM t½” value is given as 96 min.

Consider `CC(C)(CCc1ccc(O)c(OC(F)(F)F)c1)N1Cc2cccc(S(C)(=O)=O)c2C1` [compound 67], for which the “Mouse liver microsomes, MLM t½” value is listed as 39 min.

`COc1cc(CC[C@@H](C)N2Cc3cccc(F)c3C2)ccc1OCCO` [compound 51]: the “Mouse liver microsomes, MLM t½” value came out at 66 min.

In the case of `CC(C)Oc1cc(CCC(C)(C)N2Cc3ccc(S(C)(=O)=O)cc3C2)ccc1O` [compound 70], the “Mouse liver microsomes, MLM t½” value turned out to be 79 min.

With `COc1cc(CC[C@@H](C)N2Cc3cccc(S(C)(=O)=O)c3C2)ccc1O` [compound 65], the “Mouse liver microsomes, MLM t½” value is 41 min.

On to `CC(C)(CCc1ccc(F)cc1)N1Cc2ccc(F)cc2C1` [compound 35], for which the “Mouse liver microsomes, MLM t½” value was 9 min.

For the compound `CN(C)C(=O)c1cccc2c1CN(C(C)(C)CCc1ccc(O)c(OC(C)(C)C)c1)C2` [compound 59], the “Mouse liver microsomes, MLM t½” value is 8 min.

As for `COc1cc(CCC(C)(C)N2Cc3cccc(C(=O)NCCN(C)C)c3C2)ccc1O` [compound 78], the “Mouse liver microsomes, MLM t½” value stood at 450 min.

Regarding `C[C@H](CCc1ccc(Cl)c(Cl)c1)N1Cc2ccc(C(F)(F)F)cc2C1` [compound 4], the “Mouse liver microsomes, MLM t½” value is 40 min.

As for `COc1cc(CCC(C)N2Cc3ccc4ccccc4c3C2)ccc1O.Cl` (centres unmarked) [compound 17], the “Mouse liver microsomes, MLM t½” value was found to be 10 min.

Consider `COc1cc(CC[C@@H](C)N2Cc3ccc(Cl)cc3C2)ccc1O` [compound 1], for which the “Mouse liver microsomes, MLM t½” value came to 11 min.

For `C[C@H](CCc1ccc(Cl)c(Cl)c1)N1Cc2ccc3ccccc3c2C1` [compound 19], the “Mouse liver microsomes, MLM t½” value worked out at 25 min.

With `COc1cc(CC[C@@H](C)N2Cc3cccc(F)c3C2)ccc1O` [compound 8], the “Mouse liver microsomes, MLM t½” value amounted to 16 min.

Regarding `COc1cc2c(cc1OC)CN(C(C)(C)CCc1ccc(F)cc1)C2` [compound 34], the “Mouse liver microsomes, MLM t½” value stood at 46 min.

Consider `COc1cc(CCC(C)(C)N2Cc3cccc(C(=O)N4CCN(C)CC4)c3C2)ccc1O` [compound 82], for which the “Mouse liver microsomes, MLM t½” value was found to be 27 min.

In the case of `COc1cc(CCC(C)(C)N2Cc3cccc(S(C)(=O)=O)c3C2)ccc1O` [compound 64], the “Mouse liver microsomes, MLM t½” value worked out at 52 min.

Regarding `COc1cc(CCC(C)(C)N2Cc3cccc(C(=O)N(C)CCN(C)C)c3C2)ccc1O` [compound 81], the “Mouse liver microsomes, MLM t½” value is given as 88 min.

On to `CC(C)(CCc1ccc(O)c(OC(F)(F)F)c1)N1Cc2c(F)ccc(F)c2C1` [compound 55], for which the “Mouse liver microsomes, MLM t½” value turned out to be 34 min.

With `CC(C)(C)Oc1cc(CCC(C)(C)N2Cc3c(F)ccc(F)c3C2)ccc1O` [compound 74], the “Mouse liver microsomes, MLM t½” value was determined as 21 min.

As to `CC(C)COc1cc(CCC(C)(C)N2Cc3cccc(F)c3C2)ccc1O` [compound 88], the “Mouse liver microsomes, MLM t½” value was found to be 28 min.

Regarding `COc1cc(CC[C@@H](C)N2Cc3cc(Cl)c(Cl)cc3C2)ccc1O` [compound 3], the “Mouse liver microsomes, MLM t½” value is listed as 21 min.

Take `C[C@H](CCc1ccc(Cl)c(Cl)c1)N1Cc2cc(Cl)c(Cl)cc2C1` [compound 5]: the “Mouse liver microsomes, MLM t½” value worked out at 53 min.

Consider `Cc1ccc2c(c1)CN([C@H](C)CCc1ccc(Cl)c(Cl)c1)C2` [compound 13], for which the “Mouse liver microsomes, MLM t½” value is on record as 3 min.

On to `CC(C)(CCc1ccc(O)c(OC(F)(F)F)c1)N1Cc2cccc(F)c2C1` [compound 54], for which the “Mouse liver microsomes, MLM t½” value is 12 min.

In the case of `CC(C)Oc1ccc(CC[C@@H](C)N2Cc3cc4c(cc3C2)OCO4)cc1OC(C)C` [compound 40], the “Mouse liver microsomes, MLM t½” value worked out at 6 min.

For `COc1cc(CC[C@@H](C)N2Cc3ccc(C(F)(F)F)cc3C2)ccc1O` [compound 2], the “Mouse liver microsomes, MLM t½” value worked out at 28 min.

Take `C[C@H](CCc1ccc(F)cc1)N1Cc2ccc(F)cc2C1` [compound 22]: the “Mouse liver microsomes, MLM t½” value is on record as 7 min.

For the compound `CC(C)COc1cc(CCC(C)(C)N2Cc3cccc(C(=O)N4CCN(C)CC4)c3C2)ccc1O` [compound 91], the “Mouse liver microsomes, MLM t½” value is reported as 6 min.

Regarding `CC(=O)N1CCN(C(=O)c2cccc3c2CN(C(C)(C)CCc2ccc(O)c(OCC(C)C)c2)C3)CC1` [compound 92], the “Mouse liver microsomes, MLM t½” value is 7 min.

Regarding `CC(C)(C)Oc1cc(CCC(C)(C)N2Cc3cccc(S(C)(=O)=O)c3C2)ccc1O` [compound 66], the “Mouse liver microsomes, MLM t½” value was found to be 10 min.
